Source: a compilation of properties of binary mixtures (doi:10.1016/j.molliq.2022.119417)

Test: xn = mol fraction of the nth substance listed
Conditions: 100 kPa

CC[n+]1ccn(C)c1.O=S(=O)([O-])O + OCCO
viscosity [mPa·s]
Conditions	x1 = 0.125	x1 = 0.143	x1 = 0.167	x1 = 0.2	x1 = 0.25	x1 = 0.33	x1 = 0.5
298.15 K	19	21	24	28	35	52	95
303.15 K	–	17	20	23	29	43	–
308.15 K	13	15	17	19	–	35	62
313.15 K	11	–	14	16	20	–	50
318.15 K	9	11	–	14	18	25	42
323.15 K	8	9	10	12	15	–	35
